Peptide text beside a SMILES is read from it. * marks the point of attachment. Bz = O=C(c1ccccc1)*
Biological target: Angiotensin-converting enzyme (Homo sapiens, UniProt P12821+Q9BYF1)
Assay: Inhibitory activity against angiotensin converting enzyme
Format: protein assay

Work on `O=C(N[C@@H](Cc1ccccc1)C(=O)NCC(=O)N1CCC[C@H]1C(=O)O)c1ccccc1` (Bz-Phe-Gly-Pro-OH) yielded an IC50 of 9.4 µM.
